What was measured:
Assay type in all cases: biochemical
JAK1 = JAK1 (Homo sapiens (Human), UniProt P23458); test: JAK/TYK2 assay (Kinase Glo luminescence), JAK1; details: 7.5 nM enzyme, 2 uM ATP, 30 uM IRS-1, 1 hr
Procedure: (§1) 10 mM test compound stock or 1 mM control compound stock (tofocitinib, ruxolitinib or staurosporine) in DMSO was diluted to 0.4 mM in DMSO. A 3-fold series dilution was then performed in DMSO to generate 10 different compound concentrations. The assay was carried out in 384-well white plate. 0.5 uL of 40× compound DMSO solution at different concentrations was mixed with 10 uL 2× enzyme prepared in reaction buffer (20 mM HEPES, 10 mM MgCl2, 0.01% Tween, 1 mM DTT, pH 7.5). 10 uL 2× substrate mixture prepared in reaction buffer was then added to start the reaction. A short spin was done to settle down all solutions to the bottom of the plate. Final concentrations of test compound in the reaction mixture were 10000, 3333, 1111, 370, 123, 41.2, 13.7, 4.57, 1.52and 0.51 nM. Concentrations of control compound were ten times less. Enzymatic reaction was conducted at 25° C. for 1-2 hours. 10 uL of Kinase Glo Reagents was added to stop the reaction and generate the luminescent signal which was measured using Envision. Luminescence signal was inversely related to kinase activity. […] The mixture without any compound was the positive control.

JAK3 = JAK3 (Homo sapiens (Human), UniProt P52333); test: JAK/TYK2 assay (Kinase Glo luminescence), JAK3; details: 1.5 nM enzyme, 2 uM ATP, 4 uM pEY, 1 hr
JAK3, sequence (P52333 whole entry, species assumed): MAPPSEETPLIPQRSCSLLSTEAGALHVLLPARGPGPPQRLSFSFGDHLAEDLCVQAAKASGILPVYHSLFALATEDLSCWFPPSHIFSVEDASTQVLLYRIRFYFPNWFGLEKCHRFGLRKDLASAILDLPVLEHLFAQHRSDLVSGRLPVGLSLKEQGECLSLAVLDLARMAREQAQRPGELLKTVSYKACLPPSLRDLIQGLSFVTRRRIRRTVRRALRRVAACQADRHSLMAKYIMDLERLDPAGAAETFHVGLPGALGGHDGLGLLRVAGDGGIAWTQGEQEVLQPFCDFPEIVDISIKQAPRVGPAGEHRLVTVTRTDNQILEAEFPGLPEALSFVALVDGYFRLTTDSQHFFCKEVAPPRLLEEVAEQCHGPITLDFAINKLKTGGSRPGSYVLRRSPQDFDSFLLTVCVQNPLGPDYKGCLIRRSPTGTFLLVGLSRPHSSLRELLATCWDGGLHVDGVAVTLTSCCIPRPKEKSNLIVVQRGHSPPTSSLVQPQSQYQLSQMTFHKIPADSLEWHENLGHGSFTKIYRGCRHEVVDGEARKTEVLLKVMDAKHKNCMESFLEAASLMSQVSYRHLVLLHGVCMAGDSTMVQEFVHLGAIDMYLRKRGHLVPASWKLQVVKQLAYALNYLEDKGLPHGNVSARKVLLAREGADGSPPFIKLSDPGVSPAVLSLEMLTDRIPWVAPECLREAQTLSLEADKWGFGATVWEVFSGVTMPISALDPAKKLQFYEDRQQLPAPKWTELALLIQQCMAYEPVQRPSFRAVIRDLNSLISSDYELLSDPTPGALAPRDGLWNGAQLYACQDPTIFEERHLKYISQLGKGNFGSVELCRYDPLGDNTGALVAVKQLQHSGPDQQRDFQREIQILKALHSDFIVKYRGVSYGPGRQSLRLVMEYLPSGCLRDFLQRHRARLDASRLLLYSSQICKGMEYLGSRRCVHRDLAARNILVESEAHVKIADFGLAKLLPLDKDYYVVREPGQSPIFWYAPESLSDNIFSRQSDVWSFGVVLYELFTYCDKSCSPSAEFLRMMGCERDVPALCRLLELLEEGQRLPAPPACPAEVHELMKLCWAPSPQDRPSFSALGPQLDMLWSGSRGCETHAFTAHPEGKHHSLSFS
Procedure: as §1

TYK2 = TYK2 (Homo sapiens (Human), UniProt P29597); test: JAK/TYK2 assay (Kinase Glo luminescence), TYK2; details: 9 nM enzyme, 2 uM ATP, 30 uM IRS-1, 1 hr
TYK2, sequence (P29597 whole entry, species assumed): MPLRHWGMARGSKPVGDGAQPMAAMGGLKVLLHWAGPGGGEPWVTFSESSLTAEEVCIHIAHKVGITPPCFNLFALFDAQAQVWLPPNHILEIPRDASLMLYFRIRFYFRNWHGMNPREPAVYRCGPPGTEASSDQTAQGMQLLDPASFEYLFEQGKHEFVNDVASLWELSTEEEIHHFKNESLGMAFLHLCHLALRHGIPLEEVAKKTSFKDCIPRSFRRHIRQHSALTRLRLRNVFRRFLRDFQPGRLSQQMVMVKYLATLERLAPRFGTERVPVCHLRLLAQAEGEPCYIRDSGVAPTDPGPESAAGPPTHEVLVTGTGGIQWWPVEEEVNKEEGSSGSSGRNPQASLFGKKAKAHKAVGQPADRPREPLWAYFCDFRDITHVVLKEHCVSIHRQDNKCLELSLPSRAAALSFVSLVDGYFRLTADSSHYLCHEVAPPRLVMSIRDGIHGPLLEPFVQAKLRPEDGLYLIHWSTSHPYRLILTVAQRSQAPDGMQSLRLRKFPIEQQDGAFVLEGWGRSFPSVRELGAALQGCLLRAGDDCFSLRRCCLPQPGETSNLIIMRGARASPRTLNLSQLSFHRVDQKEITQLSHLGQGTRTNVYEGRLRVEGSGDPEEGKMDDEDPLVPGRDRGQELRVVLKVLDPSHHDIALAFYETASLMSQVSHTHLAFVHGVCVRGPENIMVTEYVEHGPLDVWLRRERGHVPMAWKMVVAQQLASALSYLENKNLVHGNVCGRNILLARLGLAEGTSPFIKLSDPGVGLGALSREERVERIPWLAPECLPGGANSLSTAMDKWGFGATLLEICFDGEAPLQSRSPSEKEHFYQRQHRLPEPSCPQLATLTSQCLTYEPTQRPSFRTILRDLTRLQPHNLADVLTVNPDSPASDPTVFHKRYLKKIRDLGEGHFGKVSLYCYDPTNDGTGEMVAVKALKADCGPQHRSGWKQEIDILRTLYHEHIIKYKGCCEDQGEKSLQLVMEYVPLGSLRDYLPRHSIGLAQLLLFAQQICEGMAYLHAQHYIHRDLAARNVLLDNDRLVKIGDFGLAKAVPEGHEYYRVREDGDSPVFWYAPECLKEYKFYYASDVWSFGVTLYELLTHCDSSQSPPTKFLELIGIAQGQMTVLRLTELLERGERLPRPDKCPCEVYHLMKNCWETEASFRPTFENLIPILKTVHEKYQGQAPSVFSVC
Procedure: as §1

JAK2 = JAK2 (Homo sapiens (Human), UniProt O60674); test: JAK/TYK2 assay (Kinase Glo luminescence), JAK2; details: 0.8 nM enzyme, 2 uM ATP, 4 uM pEY, 1 hr
JAK2, sequence (O60674 whole entry, species assumed): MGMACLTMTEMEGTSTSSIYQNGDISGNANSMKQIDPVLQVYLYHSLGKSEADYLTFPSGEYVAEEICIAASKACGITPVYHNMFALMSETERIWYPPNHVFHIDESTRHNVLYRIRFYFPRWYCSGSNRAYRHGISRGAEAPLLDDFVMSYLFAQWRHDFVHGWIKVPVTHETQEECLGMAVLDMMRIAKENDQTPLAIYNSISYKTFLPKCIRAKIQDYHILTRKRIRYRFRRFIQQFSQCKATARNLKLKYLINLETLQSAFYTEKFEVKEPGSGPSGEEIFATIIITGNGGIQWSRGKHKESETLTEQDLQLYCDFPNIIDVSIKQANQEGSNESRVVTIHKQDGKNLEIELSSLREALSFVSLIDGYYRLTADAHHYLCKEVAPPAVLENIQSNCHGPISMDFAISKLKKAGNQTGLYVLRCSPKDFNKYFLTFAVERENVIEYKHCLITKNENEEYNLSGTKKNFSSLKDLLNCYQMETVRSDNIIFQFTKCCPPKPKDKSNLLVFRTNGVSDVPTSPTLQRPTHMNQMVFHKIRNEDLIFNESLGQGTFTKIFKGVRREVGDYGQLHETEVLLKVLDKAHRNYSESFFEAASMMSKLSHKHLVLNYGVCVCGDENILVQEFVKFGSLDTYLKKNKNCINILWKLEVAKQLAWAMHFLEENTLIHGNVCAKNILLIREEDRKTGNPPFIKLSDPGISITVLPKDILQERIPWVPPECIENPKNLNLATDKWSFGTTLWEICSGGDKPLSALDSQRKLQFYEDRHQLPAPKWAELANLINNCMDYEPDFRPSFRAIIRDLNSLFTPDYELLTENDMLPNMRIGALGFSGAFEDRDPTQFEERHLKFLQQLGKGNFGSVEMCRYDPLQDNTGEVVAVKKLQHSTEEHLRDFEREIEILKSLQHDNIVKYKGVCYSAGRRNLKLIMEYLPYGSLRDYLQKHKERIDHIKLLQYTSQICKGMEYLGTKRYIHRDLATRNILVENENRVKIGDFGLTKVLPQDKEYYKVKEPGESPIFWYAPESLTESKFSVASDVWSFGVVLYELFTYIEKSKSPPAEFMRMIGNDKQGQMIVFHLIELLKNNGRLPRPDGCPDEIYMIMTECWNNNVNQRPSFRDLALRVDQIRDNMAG
Procedure: as §1

JAK1, sequence (P23458 whole entry, species assumed): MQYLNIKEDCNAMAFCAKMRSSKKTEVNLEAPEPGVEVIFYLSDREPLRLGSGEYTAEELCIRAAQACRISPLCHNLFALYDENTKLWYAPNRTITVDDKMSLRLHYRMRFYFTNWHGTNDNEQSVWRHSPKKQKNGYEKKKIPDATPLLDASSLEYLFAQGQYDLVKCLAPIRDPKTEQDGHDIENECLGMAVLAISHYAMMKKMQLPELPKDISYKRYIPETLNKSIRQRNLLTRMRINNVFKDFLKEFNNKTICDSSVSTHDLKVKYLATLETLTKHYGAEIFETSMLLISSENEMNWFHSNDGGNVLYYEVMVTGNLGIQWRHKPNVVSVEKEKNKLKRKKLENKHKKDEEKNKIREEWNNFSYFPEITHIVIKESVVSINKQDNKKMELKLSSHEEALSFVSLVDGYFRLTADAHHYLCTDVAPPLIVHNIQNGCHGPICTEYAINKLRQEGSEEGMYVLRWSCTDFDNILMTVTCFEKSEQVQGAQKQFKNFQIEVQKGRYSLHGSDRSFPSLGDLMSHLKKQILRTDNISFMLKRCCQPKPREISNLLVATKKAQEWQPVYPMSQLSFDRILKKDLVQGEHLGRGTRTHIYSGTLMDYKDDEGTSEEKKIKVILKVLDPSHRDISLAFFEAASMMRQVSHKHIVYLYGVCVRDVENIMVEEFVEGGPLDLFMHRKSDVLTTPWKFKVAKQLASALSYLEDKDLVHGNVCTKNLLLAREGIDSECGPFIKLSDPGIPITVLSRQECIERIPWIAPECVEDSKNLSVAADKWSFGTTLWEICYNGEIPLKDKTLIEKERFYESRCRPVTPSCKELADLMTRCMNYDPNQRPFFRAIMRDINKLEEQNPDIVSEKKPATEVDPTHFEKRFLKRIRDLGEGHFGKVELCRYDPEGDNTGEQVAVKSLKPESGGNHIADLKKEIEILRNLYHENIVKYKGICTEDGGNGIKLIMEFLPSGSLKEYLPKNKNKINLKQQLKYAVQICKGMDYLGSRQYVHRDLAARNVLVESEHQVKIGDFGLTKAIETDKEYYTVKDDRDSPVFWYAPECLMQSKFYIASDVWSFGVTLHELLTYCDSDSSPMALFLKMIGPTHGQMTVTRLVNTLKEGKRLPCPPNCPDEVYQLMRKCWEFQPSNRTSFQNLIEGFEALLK

SMILES	IC50 (JAK1)	IC50 (JAK3)	IC50 (TYK2)	IC50 (JAK2)
CCOC(=O)Cn1cc(Nc2ncc3ccn(C[C@H]4CC[C@@H](O)CC4)c3n2)cn1 [Compound 52, ethyl 2-(4-((7-(((1s,4s)-4-hydroxycyclohexyl)methyl)-7H-pyrrolo[2,3-d]pyrimidin-2-yl)amino)-1H-pyrazol-1-yl)acetate]	100 to 1000 nM	< 100 nM	< 100 nM	< 100 nM
CCOC(=O)Cn1cc(Nc2ncc3ccn(Cc4csc(C)n4)c3n2)cn1 [Compound 55, ethyl 2-(4-((7-((2-methylthiazol-4-yl)methyl)-7H-pyrrolo[2,3-d]pyrimidin-2-yl)amino)-1H-pyrazol-1-yl)acetate]	100 to 1000 nM	< 100 nM	100 to 1000 nM	< 100 nM
CCOC(=O)Cn1cc(Nc2ncc3ccn(CC(CC)CO)c3n2)cn1 (stereo not shown) [Compound 65, ethyl 2-(4-((7-(2-(hydroxymethyl)butyl)-7H-pyrrolo[2,3-d]pyrimidin-2-yl)amino)-1H-pyrazol-1-yl)acetate]	< 100 nM	< 100 nM	< 100 nM	< 100 nM
CCOC(=O)Cn1cc(Nc2ncc3ccn(CC(CC)CC#N)c3n2)cn1 (stereo not shown) [Compound 70, ethyl 2-(4-((7-(2-(cyanomethyl)butyl)-7H-pyrrolo[2,3-d]pyrimidin-2-yl)amino)-1H-pyrazol-1-yl)acetate]	< 100 nM	< 100 nM	< 100 nM	< 100 nM
CC[C@H](Cn1ccc2cnc(Nc3cnn(C4CCOC4=O)c3)nc21)C(C)C (stereo partly drawn) [Compound 82, 3-(4-((7-((S)-2-ethyl-3-methylbutyl)-7H-pyrrolo[2,3-d]pyrimidin-2-yl)amino)-1H-pyrazol-1-yl)dihydrofuran-2(3H)-one]	< 100 nM	< 100 nM	< 100 nM	< 100 nM
CC[C@H](Cn1ccc2cnc(Nc3cnn([C@@H]4CCOC4=O)c3)nc21)C(C)C [Compound 82A, (R)-3-(4-((7-((S)-2-ethyl-3-methylbutyl)-7H-pyrrolo[2,3-d]pyrimidin-2-yl)amino)-1H-pyrazol-1-yl)dihydrofuran-2(3H)-one]	< 100 nM	< 100 nM	< 100 nM	< 100 nM
CC[C@H](Cn1ccc2cnc(Nc3cnn([C@H]4CCOC4=O)c3)nc21)C(C)C [Compound 82B, (S)-3-(4-((7-((S)-2-ethyl-3-methylbutyl)-7H-pyrrolo[2,3-d]pyrimidin-2-yl)amino)-1H-pyrazol-1-yl)dihydrofuran-2(3H)-one]	< 100 nM	< 100 nM	< 100 nM	< 100 nM
CCC(Cn1ccc2cnc(Nc3cnn(CC(=O)OC(C)C)c3)nc21)C(C)C (stereo not shown) [Compound 83, isopropyl 2-(4-((7-(2-ethyl-3-methylbutyl)-7H-pyrrolo[2,3-d]pyrimidin-2-yl)amino)-1H-pyrazol-1-yl)acetate]	< 100 nM	< 100 nM	< 100 nM	< 100 nM
CCCCOC(=O)Cn1cc(Nc2ncc3ccn(CC(CC)C(C)C)c3n2)cn1 (stereo not shown) [Compound 84, butyl 2-(4-((7-(2-ethyl-3-methylbutyl)-7H-pyrrolo[2,3-d]pyrimidin-2-yl)amino)-1H-pyrazol-1-yl)acetate]	< 100 nM	< 100 nM	< 100 nM	< 100 nM
CCC(Cn1ccc2cnc(Nc3cnn(CC(=O)OCCO)c3)nc21)C(C)C (stereo not shown) [Compound 85, 2-hydroxyethyl 2-(4-((7-(2-ethyl-3-methylbutyl)-7H-pyrrolo[2,3-d]pyrimidin-2-yl)amino)-1H-pyrazol-1-yl)acetate]	< 100 nM	< 100 nM	< 100 nM	< 100 nM
CCOCCOC(=O)Cn1cc(Nc2ncc3ccn(CC(CC)C(C)C)c3n2)cn1 (stereo not shown) [Compound 86, 2-ethoxyethyl 2-(4-((7-(2-ethyl-3-methylbutyl)-7H-pyrrolo[2,3-d]pyrimidin-2-yl)amino)-1H-pyrazol-1-yl)acetate]	< 100 nM	< 100 nM	< 100 nM	< 100 nM
CC(C)C(Cn1ccc2cnc(Nc3cnn(CC(=O)O)c3)nc21)C(C)C [Compound 87, 2-(4-((7-(2-isopropyl-3-methylbutyl)-7H-pyrrolo[2,3-d]pyrimidin-2-yl)amino)-1H-pyrazol-1-yl)acetic acid]	< 100 nM	< 100 nM	< 100 nM	< 100 nM
CC(C)C(Cn1ccc2cnc(Nc3cnn(CC(=O)OCCO)c3)nc21)C(C)C [Compound 88, 2-hydroxyethyl 2-(4-((7-(2-isopropyl-3-methylbutyl)-7H-pyrrolo[2,3-d]pyrimidin-2-yl)amino)-1H-pyrazol-1-yl)acetate]	< 100 nM	< 100 nM	< 100 nM	< 100 nM
CCC(CC)Cn1ccc2cnc(Nc3cnn(CC(=O)OCCC#N)c3)nc21 [Compound 89, 2-cyanoethyl 2-(4-((7-(2-ethylbutyl)-7H-pyrrolo[2,3-d]pyrimidin-2-yl)amino)-1H-pyrazol-1-yl)acetate]	< 100 nM	< 100 nM	< 100 nM	< 100 nM
CCC(CC)Cn1ccc2cnc(Nc3cnn(CC(=O)OCCO)c3)nc21 [Compound 90, 2-hydroxyethyl 2-(4-((7-(2-ethylbutyl)-7H-pyrrolo[2,3-d]pyrimidin-2-yl)amino)-1H-pyrazol-1-yl)acetate]	< 100 nM	< 100 nM	< 100 nM	< 100 nM
CCC(CC)Cn1ccc2cnc(Nc3cnn(CC(=O)OC4CC(C#N)C4)c3)nc21 (stereo not shown) [Compound 91, 3-cyanocyclobutyl 2-(4-((7-(2-ethylbutyl)-7H-pyrrolo[2,3-d]pyrimidin-2-yl)amino)-1H-pyrazol-1-yl)acetate]	< 100 nM	< 100 nM	< 100 nM	< 100 nM
CCC(Cn1ccc2cnc(Nc3cnn(CC(=O)OCCC#N)c3)nc21)C(C)C (stereo not shown) [Compound 92, 2-cyanoethyl 2-(4-((7-(2-ethyl-3-methylbutyl)-7H-pyrrolo[2,3-d]pyrimidin-2-yl)amino)-1H-pyrazol-1-yl)acetate]	< 100 nM	< 100 nM	< 100 nM	< 100 nM
CCC(CC)Cn1ccc2cnc(Nc3cnn(CC(=O)OC(C)C)c3)nc21 [Compound 93, isopropyl 2-(4-((7-(2-ethylbutyl)-7H-pyrrolo[2,3-d]pyrimidin-2-yl)amino)-1H-pyrazol-1-yl)acetate]	< 100 nM	< 100 nM	< 100 nM	< 100 nM
CC(C)OC(=O)Cn1cc(Nc2ncc3ccn(CC(C(C)C)C(C)C)c3n2)cn1 [Compound 94, isopropyl 2-(4-((7-(2-isopropyl-3-methylbutyl)-7H-pyrrolo[2,3-d]pyrimidin-2-yl)amino)-1H-pyrazol-1-yl)acetate]	< 100 nM	< 100 nM	< 100 nM	< 100 nM
CC(C)OC(=O)Cn1cc(Nc2ncc3ccn(C[C@@H](CCN(C)C)C(C)C)c3n2)cn1 [Compound 96, isopropyl (S)-2-(4-((7-(4-(dimethylamino)-2-isopropylbutyl)-7H-pyrrolo[2,3-d]pyrimidin-2-yl)amino)-1H-pyrazol-1-yl)acetate]	100 to 1000 nM	100 to 1000 nM	100 to 1000 nM	100 to 1000 nM
CC(C)OC(=O)Cn1cc(Nc2ncc3ccn(C[C@@H](CCO)C(C)C)c3n2)cn1 [Compound 97, isopropyl (S)-2-(4-((7-(4-hydroxy-2-isopropylbutyl)-7H-pyrrolo[2,3-d]pyrimidin-2-yl)amino)-1H-pyrazol-1-yl)acetate]	< 100 nM	< 100 nM	< 100 nM	< 100 nM
CC(C)OC(=O)Cn1cc(Nc2ncc3ccn(C[C@@H](CCCl)C(C)C)c3n2)cn1 [Compound 98, isopropyl (S)-2-(4-((7-(4-chloro-2-isopropylbutyl)-7H-pyrrolo[2,3-d]pyrimidin-2-yl)amino)-1H-pyrazol-1-yl)acetate]	< 100 nM	< 100 nM	< 100 nM	< 100 nM
CC(C)OC(=O)Cn1cc(Nc2ncc3ccn(C[C@@H](CCF)C(C)C)c3n2)cn1 [Compound 99, isopropyl (S)-2-(4-((7-(4-fluoro-2-isopropylbutyl)-7H-pyrrolo[2,3-d]pyrimidin-2-yl)amino)-1H-pyrazol-1-yl)acetate]	< 100 nM	< 100 nM	< 100 nM	< 100 nM
CCC[C@H](Cn1ccc2cnc(Nc3cnn(CC(=O)OC(C)C)c3)nc21)C(C)C [Compound 100, isopropyl (S)-2-(4-((7-(2-isopropylpentyl)-7H-pyrrolo[2,3-d]pyrimidin-2-yl)amino)-1H-pyrazol-1-yl)acetate]	< 100 nM	< 100 nM	< 100 nM	< 100 nM
CCC(Cn1ccc2cnc(Nc3cnn(CC(=O)OC(C)C)c3)nc21)CC(F)(F)F (stereo not shown) [Compound 101, isopropyl 2-(4-((7-(2-ethyl-4,4,4-trifluorobutyl)-7H-pyrrolo[2,3-d]pyrimidin-2-yl)amino)-1H-pyrazol-1-yl)acetate]	< 100 nM	< 100 nM	< 100 nM	< 100 nM

Source: US11136329B2, “JAK inhibitors” (Vimalan Biosciences, Inc., priority 2019, dated 2021)
